Results published in PubChem BioAssay AID248 (DTP/NCI, 2004).
“And” between values parts separate entries of the source, which are not always exact repeats. Equal entries are not always repeated. Toxic doses and inconclusive results are not listed. Rule as the data show it: active = T/C of 150% or more; inactive = T/C below 125%.

Test system: L1210 leukemia ip in BDF1 mice, survival T/C
Experiment: NCI In Vivo Anticancer Drug Screen. Data for tumor model L1210 Leukemia (intraperitoneal) in B6D2F1 (BDF1) mice
Conditions: endpoint: mean survival time, higher = longer survival
Method in brief: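 Tumor was transplanted into mice, which were then dosed with test compound or vehicle alone. Survival was recorded for each group, and the treated figure was expressed relative to the control figure.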

[1] = dose: 100.0 mg/kg/injection, schedule: Q04DX003 (ip), vehicle: saline with Tween-80
[2] = dose: 200.0 mg/kg/injection, schedule: Q04DX003 (ip), vehicle: saline with Tween-80
[3] = dose: 100.0 mg/kg/injection, schedule: Q01DX009 (ip), vehicle: Klucel (hydroxypropylcellulose) (HPC)
[4] = dose: 200.0 mg/kg/injection, schedule: Q01DX009 (ip), vehicle: Klucel (hydroxypropylcellulose) (HPC)
[5] = dose: 100.0 mg/kg/injection, schedule: Q01DX001 (ip), vehicle: saline with Tween-80
[6] = dose: 200.0 mg/kg/injection, schedule: Q01DX001 (ip), vehicle: saline with Tween-80
[7] = dose: 400.0 mg/kg/injection, schedule: Q01DX001 (ip), vehicle: saline with Tween-80
[8] = dose: 100.0 mg/kg/injection, schedule: Q01DX001 (ip), vehicle: carboxymethylcellulose (CMC)
[9] = dose: 200.0 mg/kg/injection, schedule: Q01DX001 (ip), vehicle: carboxymethylcellulose (CMC)
[10] = dose: 400.0 mg/kg/injection, schedule: Q01DX001 (ip), vehicle: carboxymethylcellulose (CMC)
[11] = dose: 400.0 mg/kg/injection, schedule: Q04DX003 (ip), vehicle: saline with Tween-80
[12] = dose: 50.0 mg/kg/injection, schedule: Q04DX003 (ip), vehicle: Klucel (hydroxypropylcellulose) (HPC)
[13] = dose: 100.0 mg/kg/injection, schedule: Q04DX003 (ip), vehicle: Klucel (hydroxypropylcellulose) (HPC)
[14] = dose: 200.0 mg/kg/injection, schedule: Q04DX003 (ip), vehicle: Klucel (hydroxypropylcellulose) (HPC)
[15] = dose: 400.0 mg/kg/injection, schedule: Q04DX003 (ip), vehicle: Klucel (hydroxypropylcellulose) (HPC)
[16] = dose: 100.0 mg/kg/injection, schedule: Q01DX001 (ip), vehicle: Klucel (hydroxypropylcellulose) (HPC)
[17] = dose: 200.0 mg/kg/injection, schedule: Q01DX001 (ip), vehicle: Klucel (hydroxypropylcellulose) (HPC)
[18] = dose: 25.0 mg/kg/injection, schedule: Q01DX009 (ip), vehicle: saline with Tween-80
[19] = dose: 50.0 mg/kg/injection, schedule: Q01DX009 (ip), vehicle: saline with Tween-80
[20] = dose: 100.0 mg/kg/injection, schedule: Q01DX001 (ip), vehicle: saline
[21] = dose: 200.0 mg/kg/injection, schedule: Q01DX001 (ip), vehicle: saline
[22] = dose: 400.0 mg/kg/injection, schedule: Q01DX001 (ip), vehicle: saline

Measured: T/C

OCC(O)C(O)C(O)C(SCc1ccccc1)SCc1ccccc1 (configuration not stated)
inactive: dose: 75.0 mg/kg/injection, schedule: Q04DX002 (ip), vehicle: saline with Tween-80 93 % of control | dose: 150.0 mg/kg/injection, schedule: Q04DX002 (ip), vehicle: saline with Tween-80 117 % of control | dose: 300.0 mg/kg/injection, schedule: Q04DX002 (ip), vehicle: saline with Tween-80 101 % of control

O=C(O)c1cnc(Cl)c([N+](=O)[O-])c1
inactive: [1] 96 % of control | [2] 89 % of control

CNc1nc(N(C)C)nc(C)c1[N+](=O)[O-]
inactive: dose: 50.0 mg/kg/injection, schedule: Q01DX009 (ip), vehicle: Klucel (hydroxypropylcellulose) (HPC) 91 % of control | [3] 98 % of control | [4] 105 % of control

N#C/C(=C(/C#N)c1ccccc1)c1ccccc1
inactive: [5] 95 % of control | [6] 93 % of control | [7] 91 % of control

O=C1C(Cl)=C(N2CCOCC2)C(=O)C(Cl)=C1N1CCOCC1
inactive: dose: 50.0 mg/kg/injection, schedule: Q01DX001 (ip), vehicle: carboxymethylcellulose (CMC) 94 % of control | [8] 92 % of control | [9] 99 % of control | [10] 97 % of control

N#CC1CC2c3ccccc3C1c1ccccc12 (configuration not stated)
inactive: [1] 97 % of control | [2] 94 % of control | [11] 100 % of control

CCOC(=O)C1C(=O)CC2c3nc4ccccc4cc3CN2C1=O (configuration not stated)
inactive: dose: 75.0 mg/kg/injection, schedule: Q01DX001 (ip), vehicle: saline 97 % of control | dose: 150.0 mg/kg/injection, schedule: Q01DX001 (ip), vehicle: saline 114 % of control

CCCCCCCCCCCCCCCCCC(=O)OCC(=O)C(OC(=O)CCCCCCCCCCCCCCCCC)C(OC(=O)CCCCCCCCCCCCCCCCC)C(COC(=O)CCCCCCCCCCCCCCCCC)OC(=O)CCCCCCCCCCCCCCCCC (configuration not stated)
inactive: dose: 100.0 mg/kg/injection, schedule: Q01DX001 (ip), vehicle: other 95 % of control | dose: 200.0 mg/kg/injection, schedule: Q01DX001 (ip), vehicle: other 98 % of control | dose: 400.0 mg/kg/injection, schedule: Q01DX001 (ip), vehicle: other 93 % of control

CC(=O)Nc1ccc(NC(=O)Nc2cc(Cl)ccc2C)cc1
inactive: [3] 91 % of control | [4] 93 % of control | dose: 400.0 mg/kg/injection, schedule: Q01DX009 (ip), vehicle: Klucel (hydroxypropylcellulose) (HPC) 96 % of control

CCCCn1cnc(=S)c2[nH]cnc21
inactive: [12] 98 % of control | [13] 114 % of control | dose: 133.0 mg/kg/injection, schedule: Q04DX003 (ip), vehicle: Klucel (hydroxypropylcellulose) (HPC) 118 % of control

CC(C)(C)C(=O)CC(=O)C(C)(C)C.CC(C)(C)C(=O)CC(=O)C(C)(C)C.CC(C)(C)C(=O)CC(=O)C(C)(C)C.CC(C)(C)C(=O)CC(=O)C(C)(C)C.[Th]
inactive: [1] 96 % of control | [2] 98 % of control | [11] 90 % of control

CC(=O)C1CCCC23CC(CC12)C(C)(C)C3Br (configuration not stated)
inactive: [13] 100 % of control | [14] 103 % of control | [15] 97 % of control

CCCC(CCC#N)C(=O)c1ccccc1 (configuration not stated)
inactive: [16] 91 % of control | [17] 98 % of control | dose: 400.0 mg/kg/injection, schedule: Q01DX001 (ip), vehicle: Klucel (hydroxypropylcellulose) (HPC) 95 % of control

OCc1ccccc1CO
inactive: [8] 95 % of control | [9] 95 % of control | [10] 98 % of control

O=C(/C(=C\Cl)CBr)c1ccccc1
inactive: dose: 12.5 mg/kg/injection, schedule: Q01DX009 (ip), vehicle: saline with Tween-80 88 % of control | [18] 88 % of control | dose: 25.0 mg/kg/injection, schedule: Q04DX003 (ip), vehicle: saline with Tween-80 90 % of control | [19] 90 % of control | dose: 50.0 mg/kg/injection, schedule: Q04DX003 (ip), vehicle: saline with Tween-80 92 % of control | [1] 98 % of control

CC(C)SP(=S)(C(C)C)C(C)C
inactive: [5] 115 % of control | [6] 102 % of control | [7] 94 % of control

O=C1NC(c2cccc(Cl)c2)N2C(=O)NC(c3cccc(Cl)c3)N12 (configuration not stated)
inactive: dose: 100.0 mg/kg/injection, schedule: Q01DX009 (ip), vehicle: gum acacia 93 % of control | dose: 100.0 mg/kg/injection, schedule: Q04DX003 (ip), vehicle: gum acacia 92 % of control | dose: 200.0 mg/kg/injection, schedule: Q04DX003 (ip), vehicle: gum acacia 103 % of control | dose: 400.0 mg/kg/injection, schedule: Q01DX009 (ip), vehicle: gum acacia 90 % of control | dose: 400.0 mg/kg/injection, schedule: Q04DX003 (ip), vehicle: gum acacia 92 % of control

Cc1ccc2[nH]c3c(c2c1)C[P+](Cc1cccc2ccccc12)(c1ccccc1)CC3 (configuration not stated)
inactive: dose: 25.0 mg/kg/injection, schedule: Q01DX001 (ip), vehicle: Klucel (hydroxypropylcellulose) (HPC) 87 % of control | dose: 25.0 mg/kg/injection, schedule: Q04DX003 (ip), vehicle: Klucel (hydroxypropylcellulose) (HPC) 91 % of control | dose: 50.0 mg/kg/injection, schedule: Q01DX001 (ip), vehicle: Klucel (hydroxypropylcellulose) (HPC) 92 % of control | [12] 105 % of control | [16] 112 % of control and 86 % of control | [13] 99 % of control | [17] 95 % of control

O=C1OCCN1/N=C/c1ccc(Cl)cc1
inactive: [18] 102 % of control | dose: 37.5 mg/kg/injection, schedule: Q01DX009 (ip), vehicle: saline with Tween-80 98 % of control | [19] 102 % of control | dose: 75.0 mg/kg/injection, schedule: Q01DX009 (ip), vehicle: saline with Tween-80 93 % of control | dose: 100.0 mg/kg/injection, schedule: Q04DX002 (ip), vehicle: saline with Tween-80 96 % of control | dose: 200.0 mg/kg/injection, schedule: Q04DX002 (ip), vehicle: saline with Tween-80 107 % of control

OCC(O)COc1ccccc1 (configuration not stated)
inactive: [20] 108 % of control | [21] 96 % of control | [22] 96 % of control

Nc1cc(Br)cc2c1nc(NCCO)c1ccccc12
inactive: [12] 118 % of control | [13] 102 % of control | [14] 97 % of control | [15] 105 % of control

N#CC1(C#N)OC12CCS(=O)(=O)c1ccccc12 (configuration not stated)
inactive: [20] 88 % of control | [21] 95 % of control | [22] 101 % of control

CC(=O)OC1C(OC(C)=O)C2C(C)(C)CCCC2(C)C2Cc3occc3C(C)C12 (configuration not stated)
inactive: dose: 100.0 mg/kg/injection, schedule: Q04DX003 (ip), vehicle: saline 120 % of control | dose: 200.0 mg/kg/injection, schedule: Q04DX003 (ip), vehicle: saline 117 % of control | dose: 400.0 mg/kg/injection, schedule: Q04DX003 (ip), vehicle: saline 103 % of control

COC1c2c(nc3ccccc3c2C(=O)O)-c2ccccc2C1(C)C (configuration not stated)
inactive: [13] 104 % of control | [14] 104 % of control | [15] 106 % of control

CC[N+](CC)(CC)CCCC[N+](CC)(CC)CC
inactive: dose: 12.5 mg/kg/injection, schedule: Q01DX009 (ip), vehicle: water 100 % of control | dose: 25.0 mg/kg/injection, schedule: Q01DX009 (ip), vehicle: water 96 % of control | dose: 50.0 mg/kg/injection, schedule: Q01DX009 (ip), vehicle: water 90 % of control
